These results are taken from article PMC8219695 (Nature Communications, 2021).

The test system of assay [1] is WT C57 and MOR KO mice. The experiment in a line: Tail-flick in wild-type and MOR KO mice. Type of assay: in vivo, mouse. The settings on record: individual animals. Here is the method:
CD1 mice (n = 10), at peak analgesic time point. […] Dose–response curves of 22 (s.c.), in the tail-flick assay was evaluated 15 min post drug administration in WT, C57 mice (n = 8) and MOR KO mice (n = 5). Each point represents mean ± SEM.
To confirm that the low-efficacy analgesia is driven by MOR, and no other targets or mechanisms (e.g., other opioid receptors or non-opioid off-targets), we performed the mouse tail-flick assay in wild-type (WT), and MOR knockout (MOR KO) mice with the same genetic background (Fig. 9e).
For analgesic testing in KO animals, wild-type, male C57BL/6 mice (22–33 g), 10–12 weeks were purchased from the Jackson Lab (Bar Harbor, ME). These mice were kept at a constant temperature of 22 ± 2 °C, and relative humidity was maintained at 40–50%. Exon-1/Exon-11 MOR-1 KO mice on a C57 background were bred in the Pintar laboratory at Rutgers University. All mice were maintained on a 12-hour light/dark cycle with food and water available ad libitum, and housed in groups of five until testing. All testing was done in the light cycle.
Analgesia was tested in wild-type and MOR KO animals by the radiant heat tail-flick technique using an IITC Model 33 Tail Flick Analgesia Meter as previously described. The intensity was set to achieve a baseline between 2 and 3 s. Tail-flick antinociception was assessed as an increase in baseline latency, with a maximal 10 s latency to minimize damage to the tail. Data were analyzed as percent maximal effect, % MPE, which was calculated according to the formula: % MPE [(observed latency − baseline latency)/(maximal latency − baseline latency)] × 100. Compounds were administered s.c. as indicated in the figures, and analgesia was assessed at the peak effect (15 min). Mice were tested for analgesia with cumulative subcutaneous doses of the drug until the mouse can withstand the maximal latency. Once the mouse reached the maximal latency, the mouse was no longer given higher doses. In vivo experiments were evaluated using GraphPad Prism 8, San Diego, CA as described above. […]
dilution series was prepared for the desired doses of 0.1, 0.3, 1, 3, and 10 mg/kg (concentrations 0.01 mg/mL, 0.03 mg/mL, 0.1 mg/mL, 0.3 mg/mL, and 1 mg/mL respectively). Solutions were filtered through a PTFE 0.45μm syringe filter and administered s.c. at a max volume of 300μL.
Tail Flick (Dose – response)
Tail flick antinociception was determined using the radiant heat tail flick technique using an Ugo Basile model 37360 instrument as previously described.21,22 The intensity was set to achieve a baseline between 2 and 3 s. Baseline latencies were determined before experimental treatments for all mice. Tail flick antinociception was assessed as an increase in baseline latency, with a maximal 15 s latency to minimize damage to the tail. Data were analyzed as percent maximal effect, %MPE, and was calculated according to the formula: % MPE = [(observed latency – baseline latency)/(maximal latency – baseline latency)] × 100.
Compounds were injected subcutaneously (s.c.) and antinociception was assessed at the peak effect. Mice were tested for analgesia with cumulative subcutaneous doses of the drug until the mouse can withstand the maximal latency. Once the mouse reached the maximal latency, the mouse was no longer given higher doses. The analgesia experiments were performed by blinding the experimenter to the identity of 7OH versus 11-F-7OH. In vivo experiments were evaluated using GraphPad Prism 8, San Diego, CA as described […]
Analgesia was tested in wild-type and MOR KO animals by the radiant heat tail-flick technique using an IITC Model 33 Tail Flick Analgesia Meter as previously described.23 The intensity was set to achieve a baseline between 2 and 3 s. Tail flick antinociception was assessed as an increase in baseline latency, with a maximal 10 s latency to minimize damage to the tail. Data were analyzed as percent maximal effect, %MPE, which was calculated according to the formula: % MPE [(observed latency − baseline […]

Assay [2] deals with T1, mDOR (Mus musculus, UniProt P32300).
T1 construct: expressed in transfected cells
T1 sequence (P32300 whole entry): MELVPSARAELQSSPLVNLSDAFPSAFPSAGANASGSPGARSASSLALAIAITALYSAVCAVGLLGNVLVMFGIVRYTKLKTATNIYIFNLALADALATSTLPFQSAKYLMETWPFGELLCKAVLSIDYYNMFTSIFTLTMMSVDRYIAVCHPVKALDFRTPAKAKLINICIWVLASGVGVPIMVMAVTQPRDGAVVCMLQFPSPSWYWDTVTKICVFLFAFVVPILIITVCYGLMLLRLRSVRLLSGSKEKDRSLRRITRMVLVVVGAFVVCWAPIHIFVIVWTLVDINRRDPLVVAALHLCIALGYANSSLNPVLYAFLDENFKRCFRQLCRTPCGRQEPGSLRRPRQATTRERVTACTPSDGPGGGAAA
In words: CAMYEL BRET antagonism assay at mDOR (inhibition of DPDPE). The class given is cell-based. The settings on record: for Antagonist activity at the mDOR (raw signal): individual replicates, Supplementary Figure 9B source data. (In general: Bioluminescence resonance energy transfer reports proximity on the nanometre scale.)

The target of assay [3] is hKOR (Homo sapiens, UniProt P41145). The experiment in a line: CAMYEL BRET antagonism assay at hKOR (inhibition of U-50,488). The class given is cell-based. The settings on record: for raw BRET response, antagonist activity at the hKOR (Supplementary Figure 10A): vs EC80 U50,488, replicate raw values.
hKOR, sequence (P41145 whole entry): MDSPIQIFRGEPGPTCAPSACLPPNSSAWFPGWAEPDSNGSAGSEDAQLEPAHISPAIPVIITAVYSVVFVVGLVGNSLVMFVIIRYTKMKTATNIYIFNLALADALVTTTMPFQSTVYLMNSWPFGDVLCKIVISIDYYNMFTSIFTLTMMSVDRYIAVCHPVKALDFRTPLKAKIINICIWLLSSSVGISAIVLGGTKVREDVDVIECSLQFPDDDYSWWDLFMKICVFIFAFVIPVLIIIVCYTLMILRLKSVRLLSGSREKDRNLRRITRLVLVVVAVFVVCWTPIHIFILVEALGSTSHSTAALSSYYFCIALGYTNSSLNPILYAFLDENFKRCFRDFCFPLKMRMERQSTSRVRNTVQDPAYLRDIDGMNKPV

Several values for one entry are separate records, joined by “and”; a condition that tells them apart may be missing. Equal values may be shown once.

As to `CC[C@@H]1CN2CC[C@@]3(O)C(=Nc4cc(F)cc(OC)c43)[C@@H]2C[C@@H]1/C(=C\OC)C(=O)OC` [11-F-7OH (22), 11-Fluoro-7-hydroxymitragynine], the “Antinociceptive effect, MOR KO” value in assay [1] (dose 0.1) is 40.7407 and 22.4138 and -2.941 and 22.6277 and 21.0084; in assay [1] (dose 0.3) it was 14.0741 and 33.6207 and 22.0588 and 13.1387 and 14.2857; in assay [1] (dose 1) it was 30.3704 and 1.724 and 19.8529 and 38.6861 and -26.8908; in assay [1] (dose 3), 30.3704 and -6.897 and 22.0588 and 27.0073 and 1.681; in assay [1] (dose 10), 100 and 18.1034 and -5.882 and 26.2774 and -0.8403. For the same compound, the “Antinociceptive effect, Wild Type” value in assay [1] (dose 0.1) was 7.432 and 25.9259 and 5.926 and 9.722 and -11.5108 and 0 and 3.521 and -7.971; in assay [1] (dose 0.3), 22.2973 and 19.2593 and 0 and 16.6667 and -0.7194 and 4.895 and -7.746 and 40.5797; in assay [1] (dose 1), 71.6216 and -1.481 and 44.4444 and 10.4167 and 5.036 and 71.3287 and 100 and 14.4927; in assay [1] (dose 3), 100 (3×) and 5.185 and 43.7037 and 11.1111 and 41.0072 and -2.899; in assay [1] (dose 10), 62.1622 and 30.3704 and 25.1852 and 100 (2×) and 12.2302 and 25.1748 and 47.1014.

On to `CC[C@@H]1CN2CC[C@@]3(O)C(=Nc4cc(Br)cc(OC)c43)[C@@H]2C[C@@H]1/C(=C\OC)C(=O)OC` [11-Br-7OH (24), 11-Br-7OH], for which the “Antagonist activity at the mDOR (raw signal)” value in assay [2] (Log[drug] (M) -5, against EC80 DPDPE) is 0.06399 and 0.06291 and 0.07141 and -0.0292 and -0.02688 and -0.02364 and 0.0237 and 0.00593 and 0.00355; in assay [2] (Log[drug] (M) -6, against EC80 DPDPE), 0.1505 and 0.1501 and 0.1583 and 0.09131 and 0.07128 and 0.07775 and 0.02237 and 0.03499 and 0.03942; in assay [2] (Log[drug] (M) -7, against EC80 DPDPE), 0.2144 and 0.2068 and 0.2165 and 0.1245 and 0.1236 and 0.1249 and 0.06242 and 0.05459 and 0.06232; in assay [2] (Log[drug] (M) -8, against EC80 DPDPE) it was 0.2065 and 0.2182 and 0.2145 and 0.1188 and 0.1346 and 0.1274 and 0.05577 and 0.0581 and 0.03338; in assay [2] (Log[drug] (M) -9, against EC80 DPDPE), 0.2158 and 0.2138 and 0.2085 and 0.1371 and 0.1339 and 0.1253 and 0.04145 and 0.04861 and 0.04624; in assay [2] (Log[drug] (M) -10, against EC80 DPDPE), 0.2122 and 0.2205 and 0.2303 and 0.1255 and 0.1229 and 0.131 and 0.04756 and 0.04362 and 0.03388. Also, in assay [2] (Log[drug] (M) -11, against EC80 DPDPE), the “Antagonist activity at the mDOR (raw signal)” value is 0.208 and 0.2144 and 0.211 and 0.1321 and 0.1264 and 0.1313 and 0.05075 and 0.03733 and 0.04896. The “antagonism at mDOR” value in assay [2] (inhibition of reference agonist DPDPE (EC80)) is reported as “full inhibition”. For the same compound, the “raw BRET response, antagonist activity at the hKOR (Supplementary Figure 10A)” value in assay [3] (Log[drug] (M) -5) was 0.01109 and 0.005199 and -0.00757 and 0.006133 and 0.001515 and 0.001933 and 0.02329 and 0.01475 and 0.01349; in assay [3] (Log[drug] (M) -6), 0.0143 and 0.01072 and 0.01916 and 0.07074 and 0.07832 and 0.07872 and 0.07001 and 0.07357 and 0.05372; in assay [3] (Log[drug] (M) -7), 0.06437 and 0.07728 and 0.08334 and 0.1589 and 0.1581 and 0.1664 and 0.1453 and 0.1454 and 0.1482; in assay [3] (Log[drug] (M) -8), 0.1403 and 0.1362 and 0.1374 and 0.1753 and 0.1713 and 0.1791; in assay [3] (Log[drug] (M) -9) it was 0.09403 and 0.08676 and 0.08107 and 0.1704 and 0.1868 and 0.1861 and 0.1635 and 0.1852 and 0.1823; in assay [3] (Log[drug] (M) -10), 0.09782 and 0.1078 and 0.1073 and 0.1956 and 0.1911 and 0.1936 and 0.176 and 0.1692 and 0.1714. In addition, in assay [3] (Log[drug] (M) -11), the “raw BRET response, antagonist activity at the hKOR (Supplementary Figure 10A)” value is 0.1073 and 0.09367 and 0.109 and 0.2072 and 0.1833 and 0.1925 and 0.1707 and 0.1895 and 0.1659. Moreover, the “antagonism at hKOR” value in assay [3] (inhibition of reference agonist U50,488 (EC80)) is listed as “full inhibition”.
